The test system of series [1] is Human immunodeficiency virus 1. Put plainly: Antiviral activity against wildtype HIV-1 IIIb infected in human MT2 cells assessed as protection of viral infected cells. Format: functional, organism-based. As to conditions: for EC50: Human immunodeficiency virus 1, IIIB.
Series [2] has as its target Human immunodeficiency virus type 1 reverse transcriptase (Human immunodeficiency virus 1, UniProt Q72547). The series can be described thus: Inhibition of recombinant wildtype HIV-1 reverse transcriptase using r(A)350 as template and d(T)16 as primer preincubated with compound for 1 hrs followed by template/primer addition and measured after 30 mins by picogreen based plate reader analysis.

For series [3], the system named is MT2. Put plainly: Cytotoxicity against human MT2 cells assessed as inhibition of cell growth. Type of series: toxicity, cell-based.
Series [4] addresses Human immunodeficiency virus type 1 reverse transcriptase (Human immunodeficiency virus 1) (UniProt Q72547). The series can be described thus: Time dependent inhibition of recombinant wildtype HIV-1 reverse transcriptase at 0.1 to 1000000 nM. As to conditions: dose 0.1-1e+06 nM, time 1-48 hrs.

Each structure is given as a SMILES string. Active and inactive are the calls of the source. The rule behind the calls is not given here.

On to `N#Cc1ccc(Nc2ncc(Cc3c(F)cccc3F)o2)cc1Cl`, for which the EC50 in series [1] amounted to 0.0062 µM.
With `N#Cc1ccc(Nc2ncc(Cc3c(F)cc(-c4ccc(OS(=O)(=O)F)cc4)cc3F)o2)cc1`, the IC50 in series [2] was greater than 20 µM. Also, the result in series [1] was inactive. Also, the CC50 in series [3] came to 30 µM. For the same compound, the TDI entry in series [4] is “inactive”.
For `N#Cc1ccc(Nc2ncc(Cc3c(F)cc(-c4ccc(O)cc4)cc3F)o2)cc1Cl`, in series [2], the IC50 worked out at 0.28 µM. For the same compound, the EC50 in series [1] came out at 1.3 µM. In series [3], the CC50 was found to be 15 µM.
Turning to `N#Cc1ccc(Nc2ncc(Cc3ccc(-c4ccccc4)cc3)o2)cc1`, the IC50 in series [2] was greater than 100 µM. The outcome in series [1] was inactive. In addition, in series [3], the CC50 worked out at 80 µM.
On to `N#Cc1ccc(Nc2ncc(Cc3c(F)cc(-c4ccc(OS(=O)(=O)F)cc4)cc3F)o2)cc1Cl`, for which, in series [2], the IC50 was 3 µM. In addition, the EC50 in series [1] worked out at 4.3 µM. For the same compound, the CC50 in series [3] is 25 µM. For the same compound, the TDI entry in series [4] was “inactive”.
The like results for `N#Cc1ccc(Nc2ncc(Cc3c(F)cc(-c4ccc(C5CO5)cc4)cc3F)o2)cc1Cl` (configuration not stated) were, in that order, 0.44 µM, 0.61 µM, 25 µM and “inactive”.
With `N#Cc1ccc(-c2cc(F)c(Cc3cnc(Nc4ccc(C#N)c(Cl)c4)o3)c(F)c2)cc1`, the IC50 in series [2] is less than 0.01 µM. Moreover, the EC50 in series [1] was found to be 0.016 µM. In addition, the CC50 in series [3] turned out to be 9.5 µM.
Take `N#Cc1ccc(Nc2ncc(Cc3c(F)cc(-c4ccccc4)cc3F)o2)cc1`: in series [2], the IC50 was 0.02 µM. The EC50 in series [1] was determined as 0.17 µM. Moreover, the CC50 in series [3] came out at 59 µM.
`N#Cc1ccc(Nc2ncc(Cc3c(F)cc(-c4ccc(O)cc4)cc3F)o2)cc1`: the IC50 in series [2] is greater than 1 µM. Further, the EC50 in series [1] amounted to 5.5 µM. Besides, the cytotoxic concentration (CC50) in series [3] was determined as 15 µM.
The like results for `N#Cc1ccc(Nc2ncc(Cc3c(F)cc(-c4ccc(C#N)cc4)cc3F)o2)cc1` were, in that order, 0.011 µM, 0.03 µM and 9 µM.
The like results for `C=Cc1ccc(-c2cc(F)c(Cc3cnc(Nc4ccc(C#N)c(Cl)c4)o3)c(F)c2)cc1` were, in that order, 0.017 µM, 0.019 µM and 30 µM.
Regarding `COc1ccc(-c2ccc(Cc3cnc(Nc4ccc(C#N)cc4)o3)cc2)cc1`, in series [2], the IC50 was greater than 10 µM. Besides, the outcome in series [1] was inactive. Besides, the CC50 in series [3] was determined as 27 µM.

The term EC50 denotes the concentration needed to bring the measured effect to its halfway point. One may read the IC50 as the midpoint of a concentration-inhibition curve. As a reminder, the CC50 is the concentration at which the toxic effect on the cells reaches its halfway point.
